Laboratory results published in patent publication US20220054588A1, “USE OF SAP FOR THE TREATMENT OF EUROTIOMYCETES FUNGI INFECTIONS” (HUMANITAS MIRASOLE S.P.A., priority 2018, published 2022).

Key:
[1] = tested on: membrane attack complex (MAC; C5b-C9) on A. fumigatus conidia; experiment: FACS analysis of MAC (C5b-C9) deposition on A. fumigatus conidia in human sera; assay type: biochemical
Experimental: FIG. 12 depicts the therapeutic efficacy of SAP in treatment of invasive aspergillosis. a) b) c) survival of transiently immunosuppressed wt mice after injection with the indicated doses of AF conidia. The curve of untreated mice (n=3) with cyclophosphamide is also shown (a). Human SAP (4 mg/Kg) was injected at 2 h and 24 h after infection. a) AF 5.10^7, n=17; AF 5.10^7+SAP, n=15; b) AF 1.10^7, n=7; AF 1.10^7+SAP, n=8; c) AF 5.10^6, n=8; AF 5.10^6+SAP, n=10.***, P<0.005 SAP-treated vs. saline (Mantel-Cox test). One-way ANOVA, P<0.0001. d) lung CFU in mice treated with cyclophosphamide and infected with 1.10^7 AF conidia.*, P<0.05 (Mann-Whitney test). e) quantitative analysis of AF viability performed using a resazurin-based assay. Plasma (30%) from wt and Apcs^−/− mice were incubated (1 min) with 1.5×10^5 AF conidia pre-opsonized or not with SAP. Results are mean±SD of red fluorescence (excitation/emission 535/580-610 nm) intensity of the resazurin once reduced to resorufin within viable cells. Effect of Posaconazole (POC; 1 μM) exposure is also shown. Results are mean±SEM relative to the condition without serum (grey symbols) of two experiments performed with n=10 mice/group. […] AF viability assay performed in sera depleted from complement components. Figure summarizes one experiment out of 5 also conducted with serum 10%. Mean±SD.*, P<0.05; **, P<0.01 (unpaired t-test). g) and h) FACS analysis of MAC deposition on AF conidia (1×10^7) in presence of sera depleted from complement components (e) and the effect of SAP (f). Mean±SEM of 2 experiments performed out of 4. e, f,*, P<0.05;**, P<0.01;***, P<0.005;****, P<0.001; (Mann-Whitney test).
(§1) Complement deposition on Aspergillus fumigatus. A volume of 10 μl PBS, pH 7.4, containing 1×10^7 conidia eventually opsonized with murine SAP (100 μg/ml per 1×10^9 conidia, 1 h at r.t.) was incubated (37° C.) in round bottom wells of Corning® 96-well polypropylene microplates for the indicated time points with 20 μl mouse plasma-heparin or 20 μl human NS and complement depleted sera (diluted in PBS at 10% and 30%). Complement deposition was blocked by addition of EDTA (10 mM final concentration) and by cooling in ice. After centrifugation (2000 rpm, 10 min at 4° C.), when indicated supernatant was collected for C5a measurement by ELISA. […] Conidia were then incubated (1 h, at 4° C.) with Alexa Fluor® 488 and 647-conjugated species-specific cross-adsorbed detection antibodies (2 μg/ml; ThermoFisher Scientific-Molecular Probes) and analysed by BD FACS Canto™ II Flow Cytometer (BD Biosciences) using forward and side scatter parameters to gate on at least 8,000 conidia. […] Results were expressed as frequency of conidia showing fluorescence compared with irrelevant controls and as geometric conidia MFI.

[2] = tested on: complement activation on A. fumigatus conidia; experiment: Complement C3 deposition on A. fumigatus conidia and C5a formation in mouse plasma; assay type: biochemical; conditions: Sap-opsonised conidia
Experimental: FIG. 6 depicts the effect of SAP on complement activation on A. fumigatus. a) FACS analysis of plasma C3 deposition on AF conidia (1×10^7) opsonized or not with Sap. b) plasma C5a levels after incubation with AF conidia shown in a. a) and b) n=10 mouse plasma/genotype. b) representative experiment out of three performed. a) and b) Mean±SEM.*, P<0.05;**, P<0.01;***, P<0.005;****, P<0.0001 (unpaired t-test).
as §1
Proteins. […] Purity of the recombinant protein was assessed by SDS-PAGE followed by silver staining. […] SAP levels were measured in mouse plasma by ELISA (DuoSet ELISA; R&D Systems). Murine TNF-α, CCL2, MPO were measured by ELISA (DuoSet ELISA; R&D Systems). Murine C5a was measured either in plasma-heparin or in BALFs previously stored at −80° C. by DuoSet ELISA (R&D Systems) maintaining EDTA (10 mM) throughout the assay in order to stop the activation of the complement cascade.

Molecule | MAC formation on conidia ([1]; FB-depleted serum) | MAC formation on conidia ([1]; FH-depleted serum) | MAC formation on conidia ([1]; MBL-depleted serum) | MAC formation on conidia ([1]; normal serum, 1 min and 30 min) | in vitro C3 deposition on A. fumigatus conidia ([2]; Apcs−/− and wt plasma) | C5a formation ([2]; Apcs−/− plasma, 1, 5, 10, 20 min) | C5a formation ([2]; wt plasma)
human native SAP: Native SAP from human serum purchased by Merck-Millipore; Serum Amyloid P component, SEQ ID NO: 1 | enhanced | enhanced | enhanced | enhanced |  |  | 
recombinant murine SAP: recombinant murine SAP from mouse myeloma cell line NSO (R&D Systems) (protein, UniProt P12246 21-224, looked up) Serum amyloid P-component: QTDLKRKVFVFPRESETDHVKLIPHLEKPLQNFTLCFRTYSDLSRSQSLFSYSVKGRDNELLIYKEKVGEYSLYIGQSKVTVRGMEEYLSPVHLCTTWESSSGIVEFWVNGKPWVKKSLQREYTVKAPPSIVLGQEQDNYGGGFQRSQSFVGEFSDLYMWDYVLTPQDILFVYRDSPVNPNILNWQALNYEINGYVVIRPRVWD |  |  |  |  | rescued or increased | rescued | increased
